Data reported in ChEMBL document CHEMBL3885861, “Open TG-GATES”.

Species: Rattus norvegicus
Experiment: Open TG-GATES - Regimen: Single
Format: toxicity, organism-based, Sprague-Dawley
Design: regimen Single, gender Male, age 6 weeks
Conditions: in vivo, po, 100 mg/kg, route gavage, dose level High; for APTT / Bas / Eos / Fbg / Hb / Ht / Lym / MCH / MCHC / MCV / Mono / Neu / PT / Plat / RBC / Ret / WBC: tissue Blood; for KIDNEY_L / KIDNEY_R / KIDNEY_TOTAL: tissue Kidney; for LIVER: tissue Liver; for A/G / ALP / ALT / AST / BUN / CRE / Ca / Cl / DBIL / GLC / IP / K / LDH / Na / PL / RALB / TBIL / TC / TG / TP / gamma-GTP: tissue Plasma

CCCc1cc(=O)[nH]c(=S)[nH]1 [PROPYLTHIOURACIL]
TERMINAL_BW (3 h): 180.9 g | APTT (3 h): 15.7 s | Bas (3 h): 0% | Eos (3 h): 0.6% | Fbg (3 h): 210 mg/dL | Hb (3 h): 13.3 g/dL | Ht (3 h): 39.7% | Lym (3 h): 82.6% | MCH (3 h): 21.7 pg | MCHC (3 h): 33.3% | MCV (3 h): 65.1 fL | Mono (3 h): 5.8% | Neu (3 h): 10.8% | PT (3 h): 12.9 s | Plat (3 h): 99.3 x10_4/uL | RBC (3 h): 611.2 x10_4/ul | Ret (3 h): 9.7% | WBC (3 h): 96.7 x10_2/uL | KIDNEY_L (3 h): 0.8 g | KIDNEY_R (3 h): 0.8 g | KIDNEY_TOTAL (3 h): 1.6 g | LIVER (3 h): 8.3 g | A/G (3 h): 1.9 | ALP (3 h): 858.8 IU/L | ALT (3 h): 38 IU/L | AST (3 h): 70.2 IU/L | BUN (3 h): 12.6 mg/dL | CRE (3 h): 0.4 mg/dL | Ca (3 h): 10.9 mg/dL | Cl (3 h): 105 meq/L | DBIL (3 h): 0.03 mg/dL | GLC (3 h): 189.4 mg/dL | IP (3 h): 10.9 mg/dL | K (3 h): 4.2 meq/L | LDH (3 h): 141 IU/L | Na (3 h): 138.4 meq/L | PL (3 h): 138 mg/dL | RALB (3 h): 3.7 g/dL | TBIL (3 h): 0.3 mg/dL | TC (3 h): 83.4 mg/dL | TG (3 h): 27 mg/dL | TP (3 h): 5.6 g/dL | gamma-GTP (3 h): 2 IU/L | TERMINAL_BW (6 h): 176.2 g | APTT (6 h): 16.5 s | Bas (6 h): 0% | Eos (6 h): 0.6% | Fbg (6 h): 213.2 mg/dL | Hb (6 h): 13.2 g/dL | Ht (6 h): 39.9% | Lym (6 h): 76% | MCH (6 h): 21.6 pg | MCHC (6 h): 33.2% | MCV (6 h): 65 fL | Mono (6 h): 5.2% | Neu (6 h): 18.2% | PT (6 h): 12.8 s | Plat (6 h): 106.5 x10_4/uL | RBC (6 h): 612.8 x10_4/ul | Ret (6 h): 9.9% | WBC (6 h): 77.1 x10_2/uL | KIDNEY_L (6 h): 0.8 g | KIDNEY_R (6 h): 0.8 g | KIDNEY_TOTAL (6 h): 1.6 g | LIVER (6 h): 7.5 g | A/G (6 h): 2.1 | ALP (6 h): 762.4 IU/L | ALT (6 h): 27.8 IU/L | AST (6 h): 64 IU/L | BUN (6 h): 11.4 mg/dL | CRE (6 h): 0.4 mg/dL | Ca (6 h): 11 mg/dL | Cl (6 h): 105.4 meq/L | DBIL (6 h): 0.048 mg/dL | GLC (6 h): 186.8 mg/dL | IP (6 h): 10.5 mg/dL | K (6 h): 4.6 meq/L | LDH (6 h): 139.2 IU/L | Na (6 h): 139 meq/L | PL (6 h): 136.6 mg/dL | RALB (6 h): 3.8 g/dL | TBIL (6 h): 0.4 mg/dL | TC (6 h): 78.8 mg/dL | TG (6 h): 23 mg/dL | TP (6 h): 5.6 g/dL | gamma-GTP (6 h): 2 IU/L | TERMINAL_BW (9 h): 173.6 g | APTT (9 h): 15.9 s | Bas (9 h): 0% | Eos (9 h): 1.2% | Fbg (9 h): 207.4 mg/dL | Hb (9 h): 12.9 g/dL | Ht (9 h): 38.8% | Lym (9 h): 73.6% | MCH (9 h): 21.7 pg | MCHC (9 h): 33.3% | MCV (9 h): 65.1 fL | Mono (9 h): 8.2% | Neu (9 h): 17.2% | PT (9 h): 12.8 s | Plat (9 h): 110.6 x10_4/uL | RBC (9 h): 597.2 x10_4/ul | Ret (9 h): 9.9% | WBC (9 h): 65.2 x10_2/uL | KIDNEY_L (9 h): 0.8 g | KIDNEY_R (9 h): 0.8 g | KIDNEY_TOTAL (9 h): 1.6 g | LIVER (9 h): 7 g | A/G (9 h): 1.9 | ALP (9 h): 879.2 IU/L | ALT (9 h): 31.2 IU/L | AST (9 h): 68 IU/L | BUN (9 h): 13.6 mg/dL | CRE (9 h): 0.4 mg/dL | Ca (9 h): 10.8 mg/dL | Cl (9 h): 108 meq/L | DBIL (9 h): 0.008 mg/dL | GLC (9 h): 186.6 mg/dL | IP (9 h): 10.4 mg/dL | K (9 h): 4.8 meq/L | LDH (9 h): 176.8 IU/L | Na (9 h): 139.4 meq/L | PL (9 h): 141.4 mg/dL | RALB (9 h): 3.6 g/dL | TBIL (9 h): 0.4 mg/dL | TC (9 h): 83.2 mg/dL | TG (9 h): 28 mg/dL | TP (9 h): 5.5 g/dL | gamma-GTP (9 h): 1.4 IU/L | TERMINAL_BW (24 h): 186.8 g | APTT (24 h): 15.6 s | Bas (24 h): 0% | Eos (24 h): 1% | Fbg (24 h): 217 mg/dL | Hb (24 h): 13.1 g/dL | Ht (24 h): 39.5% | Lym (24 h): 77.6% | MCH (24 h): 21.7 pg | MCHC (24 h): 33% | MCV (24 h): 65.7 fL | Mono (24 h): 7.2% | Neu (24 h): 14.6% | PT (24 h): 12.2 s | Plat (24 h): 108.5 x10_4/uL | RBC (24 h): 601.8 x10_4/ul | Ret (24 h): 9.3% | WBC (24 h): 115.2 x10_2/uL | KIDNEY_L (24 h): 0.9 g | KIDNEY_R (24 h): 0.9 g | KIDNEY_TOTAL (24 h): 1.7 g | LIVER (24 h): 9.9 g | A/G (24 h): 1.8 | ALP (24 h): 1169.8 IU/L | ALT (24 h): 42.6 IU/L | AST (24 h): 69.2 IU/L | BUN (24 h): 17.4 mg/dL | CRE (24 h): 0.5 mg/dL | Ca (24 h): 11.2 mg/dL | Cl (24 h): 106.8 meq/L | DBIL (24 h): 0.014 mg/dL | GLC (24 h): 175.2 mg/dL | IP (24 h): 8.1 mg/dL | K (24 h): 5 meq/L | LDH (24 h): 192.4 IU/L | Na (24 h): 139.8 meq/L | PL (24 h): 170.6 mg/dL | RALB (24 h): 3.7 g/dL | TBIL (24 h): 0.3 mg/dL | TC (24 h): 97.8 mg/dL | TG (24 h): 107 mg/dL | TP (24 h): 5.7 g/dL | gamma-GTP (24 h): 1.2 IU/L
